# In patent publication US10844049B2, “GLP-1R agonists and uses thereof” (QILU REGOR THERAPEUTICS INC., priority 2018, dated 2020):
# Target: GLP1R (Homo sapiens, UniProt P43220)
# Assay: GLP1R cAMP HTRF assay, HEK293/GLP-1R/CRE/Luc (HEK293T cells)
# Assay type: cell-based
# Details: read-out: EC50
# In short: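 cAMP accumulation via HTRF after 30 min, 37 °C exposure of 1000 receptor-expressing cells/well to compound (0.5% DMSO final) in IBMX (500 μM)/0.1% BSA DPBS.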
# Chain of GLP1R (P43220 24-463): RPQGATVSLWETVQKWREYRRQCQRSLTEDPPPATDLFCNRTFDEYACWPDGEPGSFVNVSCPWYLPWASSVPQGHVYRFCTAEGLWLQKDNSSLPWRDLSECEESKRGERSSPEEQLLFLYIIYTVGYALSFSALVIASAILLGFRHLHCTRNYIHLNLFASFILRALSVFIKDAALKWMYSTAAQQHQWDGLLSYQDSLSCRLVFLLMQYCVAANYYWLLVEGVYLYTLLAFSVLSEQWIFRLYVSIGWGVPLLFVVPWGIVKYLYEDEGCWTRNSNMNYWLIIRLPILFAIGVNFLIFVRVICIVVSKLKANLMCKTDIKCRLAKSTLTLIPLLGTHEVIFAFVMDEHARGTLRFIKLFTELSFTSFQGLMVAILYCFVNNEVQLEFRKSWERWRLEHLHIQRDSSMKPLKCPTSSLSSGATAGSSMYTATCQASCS
row,SMILES,EC50
1,"O=C(O)c1ccc2nc(CN3CCN(c4cccc(OCc5ccc(Cl)cc5F)c4)CC3)n(C[C@@H]3CCO3)c2c1 [Compound 178, (S)-2-((4-(3-((4-chloro-2-fluorobenzyl)oxy)phenyl)piperazin-1-yl)methyl)-1-(oxetan-2-ylmethyl)-1H-benzo[d]imidazole-6-carboxylic add]",≤ 15 nM
2,"O=C(O)c1ccc2nc(CN3CCN(c4nc(OCc5ccc(Cl)cc5F)ncc4F)CC3)n(C[C@@H]3CCO3)c2c1 [Compound 179, (S)-2-((4-(2-(4-chloro-2-fluorobenzyloxy)-5-fluoropyrimidin-4-yl)piperazin-1-yl)methyl)-1-(oxetan-2-ylmethyl)-1H-benzo[d]imidazole-6-arboxylic acid]",≤ 15 nM
3,"O=C(O)c1ccc2nc(CN3CCN(c4ncc(F)c(OCc5ccc(Cl)cc5F)n4)CC3)n(C[C@@H]3CCO3)c2c1 [Compound 180, (S)-2-((4-(4-(4-chloro-2-fluorobenzyloxy)-5-fluoropyrimidin-2-yl)piperazin-1-yl)methyl)-1-(oxetan-2-ylmethyl)-1H-benzo[d]imidazole-6-carboxylic add]",≤ 15 nM
4,"O=C(O)c1ccc2nc(CN3CCN(c4nccc(OCc5ccc(Cl)cc5F)n4)CC3)n(C[C@@H]3CCO3)c2c1 [Compound 181, (S)-2-((4-(4-((4-chloro-2-fluorobenzyl)oxy)pyrimidin-2-yl)piperazin-1-yl)methyl)-1-(oxetan-2-ylmethyl)-1H-benzo[d]imidazole-6-carboxylic acid]",≤ 15 nM
5,"O=C(O)c1ccc2nc(CN3CCN(c4ccc(F)c(OCc5ccc(Cl)cc5F)c4)CC3)n(C[C@@H]3CCO3)c2c1 [Compound 184, (S)-2-((4-(3-((4-chloro-2-fluorobenzyl)oxy)-4-fluorophenyl)piperazin-1-yl)methyl)-1-(oxetan-2-ylmethyl)-1H-benzo[d]imidazole-6-carboxylic acid]",≤ 15 nM
6,"O=C(O)c1ccc2nc(CN3CCN(c4cc(F)cc(OCc5ccc(Cl)cc5F)c4)CC3)n(C[C@@H]3CCO3)c2c1 [Compound 185, (S)-2-((4-(3-((4-chloro-2-fluorobenzyl)oxy)-5-fluorophenyl)piperazin-1-yl)methyl)-1-(oxetan-2-ylmethyl)-1H-benzo[d]imidazole-6-carboxylic acid]",≤ 15 nM
7,"O=C(O)c1ccc2nc(CN3CCN(c4cc(OCc5ccc(Cl)cc5F)ccc4F)CC3)n(C[C@@H]3CCO3)c2c1 [Compound 186, (S)-2-((4-(5-(4-chloro-2-fluorobenzyloxy)-2-fluorophenyl)piperazin-1-yl)methyl)-1-(oxetan-2-ylmethyl)-1H-benzo[d]imidazole-6-carboxylic acid]",≤ 150 nM
8,"O=C(O)c1ccc2nc(CN3CCN(c4cc(F)c(F)c(OCc5ccc(Cl)cc5F)c4)CC3)n(C[C@@H]3CCO3)c2c1 [Compound 187, (S)-2-((4-(3-(4-chloro-2-fluorobenzyloxy)-4,5-difluorophenyl)piperazin-1-yl)methyl)-1-(oxetan-2-ylmethyl)-1H-benzo[d]imidazole-6-carboxylic acid]",≤ 15 nM
9,O=C(O)c1ccc2nc(CN3CCN(c4cc(OCc5ccc(Cl)cc5F)c(F)cc4F)CC3)n(C[C@@H]3CCO3)c2c1 [Compound 188],≤ 150 nM
10,O=C(O)c1ccc2nc(CN3CCN(c4cccc(OCc5ccc(C(F)(F)F)cc5)c4)CC3)n(C[C@@H]3CCO3)c2c1 [Compound 189],≤ 150 nM
11,"O=C(O)c1ccc2nc(CN3CCN(c4cccc(OCc5ccc(C#CC6CC6)cc5F)c4)CC3)n(C[C@@H]3CCO3)c2c1 [Compound 190, (S)-2-((4-(3-((4-(cyclopropylethynyl)-2-fluorobenzyl)oxy)phenyl)piperazin-1-yl)methyl)-1-(oxetan-2-ylmethyl)-1H-benzo[d]imidazole-6-carboxylic acid]",≤ 150 nM
12,"O=C(O)c1ccc2nc(CN3CCC(c4cccc(OCc5ccc(C#CC6CC6)cc5F)c4)CC3)n(C[C@@H]3CCO3)c2c1 [Compound 192, (S)-2-((4-(3-((4-(cyclopropylethynyl)-2-fluorobenzyl)oxy)phenyl)piperidin-1-yl)methyl)-1-(oxetan-2-ylmethyl)-1H-benzo[d]imidazole-6-carboxylic acid]",≤ 150 nM
13,"O=C(O)c1ccc2nc(CN3CCN(c4ccc(F)c(OCc5ccc(C#CC6CC6)cc5F)c4)CC3)n(C[C@@H]3CCO3)c2c1 [Compound 196, (S)-2-((4-(3-((4-(cyclopropylethynyl)-2-fluorobenzyl)oxy)-4-fluorophenyl)piperazin-1-yl)methyl)-1-(oxetan-2-ylmethyl)-1H-benzo[d]imidazole-6-carboxylic add]",≤ 150 nM
14,"O=C(O)c1ccc2nc(CN3CCN(c4cc(OCc5ccc(C#CC6CC6)cc5F)ccc4F)CC3)n(C[C@@H]3CCO3)c2c1 [Compound 198, (S)-2-((4-(5-((4-(cyclopropylethynyl)-2-fluorobenzyl)oxy)-2-fluorophenyl)piperazin-1-yl)methyl)-1-(oxetan-2-ylmethyl)-1H-benzo[d]imidazole-6-carboxylic acid]",≤ 1000 nM

# Other lines, results leading:
row,EC50,SMILES
1,≤ 1000 nM,"O=C(NS(=O)(=O)C(F)(F)F)c1ccc2nc(CN3CC=C(c4cccc(OCc5ccc(Cl)cc5F)n4)CC3)n(C[C@@H]3CCO3)c2c1 [Compound 173, (S)-2-((6-((4-chloro-2-fluorobenzyl)oxy)-3′,6′-dihydro-[2,4′-bipyridin]-1′(2′H)-yl)methyl)-1-(oxetan-2-ylmethyl)-N-((trifluoromethyl)sulfonyl)-1H-benzo[d]imidazole-6-carboxamide]"
2,≤ 15 nM,"O=C(NO)c1ccc2nc(CN3CC=C(c4cccc(OCc5ccc(Cl)cc5F)n4)CC3)n(C[C@@H]3CCO3)c2c1 [Compound 174, (S)-2-((6-((4-chloro-2-fluorobenzyl)oxy)-5′,6′-dihydro-[2,4′-bipyridin]-1′(2′H)-yl)methyl)-N-hydroxy-1-(oxetan-2-ylmethyl)-1H-benzo[d]imidazole-6-carboxamide]"
3,≤ 15 nM,"N#Cc1ccc(COc2cccc(C3=CCN(Cc4nc5ccc(C(=O)O)cc5n4C[C@@H]4CCO4)CC3)c2)c(F)c1 [Compound 175, (S)-2-((4-(3-((4-cyano-2-fluorobenzyl)oxy)phenyl)-3,6-dihydropyridin-1(2H)-yl)methyl)-1-(oxetan-2-ylmethyl)-1H-benzo[d]imidazole-6-carboxylic acid]"
4,≤ 15 nM,"N#Cc1ccc(COc2ccnc(C3=CCN(Cc4nc5ccc(C(=O)O)cc5n4C[C@@H]4CCO4)CC3)n2)c(F)c1 [Compound 176, (S)-2-((4-(4-((4-cyano-2-fluorobenzyl)oxy)pyrimidin-2-yl)-3,6-dihydropyridin-1(2H)-yl)methyl)-1-(oxetan-2-ylmethyl)-1H-benzo[d]imidazole-6-carboxylic add]"
5,≤ 15 nM,"N#Cc1ccc(COc2nccc(C3=CCN(Cc4nc5ccc(C(=O)O)cc5n4C[C@@H]4CCO4)CC3)n2)c(F)c1 [Compound 177, (S)-2-((4-(2-((4-cyano-2-fluorobenzyl)oxy)pyrimidin-4-yl)-5,6-dihydropyridin-1(2H)-yl)methyl)-1-(oxetan-2-ylmethyl)-1H-benzo[d]imidazole-6-carboxylic add]"
6,≤ 15 nM,"CCn1cncc1Cn1c(CN2CC=C(c3cccc(OCc4ccc(C#N)cc4F)n3)CC2)nc2ccc(C(=O)O)cc21 [Compound 182, 2-((6-((4-cyano-2-fluorobenzyl)oxy)-3′,6′-dihydro-[2,4′-bipyridin]-1′(2′H)-yl)methyl)-1-((1-ethyl-1H-imidazol-5-yl)methyl)-1H-benzo[d]imidazole-6-carboxylic acid]"
7,≤ 150 nM,"CCn1cnc(Cn2c(CN3CC=C(c4cccc(OCc5ccc(C#N)cc5F)n4)CC3)nc3ccc(C(=O)O)cc32)c1 [Compound 183, 2-((6-((4-cyano-2-fluorobenzyl)oxy)-3′,6′-dihydro-[2H′-bipyridin]-1′(2′H)-yl)methyl)-1-((1-ethyl-1H-imidazol-4-yl)methyl)-1H-benzo[d]imidazole-6-carboxylic acid]"
8,≤ 150 nM,"N#Cc1ccc(COc2cccc(C3CCN(Cc4nc5ccc(C(=O)O)cc5n4C[C@@H]4CCO4)CC3)c2)c(F)c1 [Compound 191, (S)-2-((4-(3-((4-cyano-2-fluorobenzyl)oxy)phenyl)piperidin-1-yl)methyl)-1-(oxetan-2-ylmethyl)-1H-benzo[d]imidazole-6-carboxylic acid]"
9,≤ 150 nM,"N#Cc1ccc(COc2cccc(N3CCN(Cc4nc5ccc(C(=O)O)cc5n4C[C@@H]4CCO4)CC3)c2)c(F)c1 [Compound 193, (S)-2-((4-(3-(4-cyano-2-fluorobenzyloxy)phenyl)piperazin-1-yl)methyl)-1-(oxetan-2-ylmethyl)-1H-benzo[d]imidazole-6-carboxylic acid]"
10,≤ 15 nM,"N#Cc1ccc(COc2cc(N3CCN(Cc4nc5ccc(C(=O)O)cc5n4C[C@@H]4CCO4)CC3)ccc2F)c(F)c1 [Compound 195, (S)-2-((4-(3-((4-cyano-2-fluorobenzyl)oxy)-4-fluorophenyl)piperazin-1-yl)methyl)-1-(oxetan-2-ylmethyl)-1H-benzo[d]imidazole-6-carboxylic add]"
11,≤ 1000 nM,"N#Cc1ccc(COc2ccc(F)c(N3CCN(Cc4nc5ccc(C(=O)O)cc5n4C[C@@H]4CCO4)CC3)c2)c(F)c1 [Compound 197, (S)-2-((4-(5-((4-cyano-2-fluorobenzyl)oxy)-2-fluorophenyl)piperazin-1-yl)methyl)-1-(oxetan-2-ylmethyl)-1H-benzo[d]imidazole-6-carboxylic add]"
12,≤ 150 nM,"O=C(O)c1ccc2nc(CN3CC=C(c4cccc(OCc5ccc(C#CC6CC6)cc5F)c4)CC3)n(C[C@@H]3CCO3)c2c1 [Compound 199, (S)-2-((4-(3-((4-(cyclopropylethynyl)-2-fluorobenzyl)oxy)phenyl)-3,6-dihydropyridin-1(2H)-yl)methyl)-1-(oxetan-2-ylmethyl)-1H-benzo[d]imidazole-6-carboxylicacid]"
13,≤ 15 nM,"O=C(O)c1ccc2nc(CN3CC=C(c4nccc(OCc5ccc(C#CC6CC6)cc5F)n4)CC3)n(C[C@@H]3CCO3)c2c1 [Compound 200, (S)-2-((4-(4-((4-(cyclopropylethynyl)-2-fluorobenzyl)oxy)pyrimidin-2-yl)-3,6-dihydropyridin-1(2H)-yl)methyl)-1-(oxetan-2-ylmethyl)-1H-benzo[d]imidazole-6-carboxylic acid]"
